What was measured:
[1] = molecular target: T1, human TREK1 single channels (Homo sapiens, UniProt O95069); assay: Single-channel recording, excised inside-out patches from HEK293 cells; format: biochemical; conditions: 10 μM on intracellular side, +60 mV
T1 construct: expressed in transfected cells
Method: Human TREK1 single channels were recorded in excised inside‐out membrane patches using an Axopatch 200B patch‐clamp amplifier and pCLAMP 10 software. Inside‐out membrane patches were excised from HEK293 cells expressing human TREK1 channels. Sylguard® 184‐coated glass pipettes with resistance around 10–15 MΩ were used. Pipette and bath compositions for inside‐out patches were opposite to those used in voltage‐clamp, that is, the pipette solution on the extracellular face of the channels contained 130 mM K and the bath solution on the intracellular face of the channel contained 4.7 mM K. Channel activities were recorded at +60 mV. The action of a hTREK1 opener was tested by addition to the intracellular solution. Single‐channel records were filtered with an eight‐pole Bessel filter (model LHBF‐48X, npi electronic GmbH, Tamm, Germany) at a corner frequency (fc) of 2 kHz and acquired using a DigiData 1440A interface and pCLAMP 10 software at a sampling rate of 20 kHz. Single‐channel traces were generated without further filtering.

Kv11.1 (hERG) = Kv11.1 (hERG) (Homo sapiens, UniProt Q12809); conditions: 10 μM
TASK2 (K2P5.1) = TASK2 (K2P5.1) (Homo sapiens, UniProt O95279); assay: Rb+ efflux assay, TASK2; format: cell-based
KCa1.1 (BK) = KCa1.1 (BK) (Homo sapiens, UniProt Q12791); assay: Manual patch clamp in recombinant cell lines, BK; format: cell-based; conditions: 10 μM; n = 4
THIK1 (K2P13.1) = molecular target: T2, THIK1 (K2P13.1) (Homo sapiens, UniProt Q9HB14); assay: Whole-cell patch clamp, THIK1 channels; format: cell-based; conditions: 1 μM; n = 7
T2 construct: expressed in transfected cells; host or cells: tsA-201, transient, pcDNA3.1 vector
Method: Recordings of hTREK1, hTREK1∆N, hTREK2, hTRAAK and […] currents from transiently transfected tsA‐201 cells were performed using methods as described in Veale and Mathie (2016). Briefly, the pcDNA3.1 vector was cloned with the gene of interest, and these vectors and a similar vector containing GFP were incorporated into the tsA201 cells (0.5 μg per well) using the calcium phosphate method. The cells were incubated for 6–12 h at 37°C in […] and 5% carbon dioxide. Cells were then washed using a PBS solution and used for experiments after 24 h.
Currents were recorded using whole‐cell patch‐clamp using an Axopatch 1D amplifier. Cells were placed in a recording chamber filled with an external medium composed of 145 mM, NaCl, 2.5 mM KCl, 3 mM MgCl2, 1 mM CaCl2 and 10 mM HEPES (pH to 7.4, using NaOH). The internal medium used in the glass pipette comprised 150 mM KCl, 3 mM MgCl2, 5 mM (or 0.1 mM) EGTA and 10 mM HEPES (pH to 7.4, using KOH). GI‐530159 was applied by bath perfusion. Currents were recorded and analysed using pCLAMP 10.2 software Microsoft Excel. The voltage protocol used for recording current through K2P channels was as previously described (Veale and Mathie, 2016). For analysis, we measured the current difference between the −80 and −40 mV steps.

small rat DRG neurons = assay: Current-clamp recordings from small rat DRG neurones in short-term culture; format: cell-based; conditions: 1 μM
Method: (§1) Acutely dissociated rat DRG cells were obtained according to a previously described protocol (Passmore, 2005). All animal care and experimental procedures complied with guidelines and were approved by the Pfizer Neusentis Institutional Animal Use and Care Committee. Animal studies are reported in compliance with the ARRIVE guidelines (Kilkenny et al., 2010; McGrath and Lilley, 2015).Cells were plated on coated coverslips (poly‐D‐lysine/laminin, BD Biosciences, San Jose, CA, USA) prior to patching on the same day. Cells were perfused with an extracellular solution containing (in mM): 135 NaCl, 4.7 KCl, 1 CaCl2, 1 MgCl2, 10 HEPES and 10 glucose, pH 7.4, with NaOH (310 mOsmol·L^−1). Pipette solution contained (in mM): 130 KCl, 1 MgCl2, 5 MgATP, 10 HEPES and 5 EGTA, pH adjusted to 7.3 with KOH (290 mOsmol·L^−1). For whole‐cell recordings, currents were filtered at 2 kHz and sampled at 5 kHz. Series resistance was compensated for by up to 80%. For current‐clamp recordings, action potential firing and resting membrane potential (RMP) were recorded from small cells ([…]). GI‐530159 was dissolved in 0.3% DMSO as 10 mM stock and applied in the vicinity of cells using a gravity fed perfusion system (MSC‐200, Bio‐Logic SAS, Claix, France).

[2] = system: Na current in DRG neurons; assay: Voltage-clamp recordings from DRG neurons, Na current; format: cell-based, rat
Method: as §1

[3] = 15 pA depolarizing current injection, of the 14 cells tested

T1 sequence (O95069 whole entry): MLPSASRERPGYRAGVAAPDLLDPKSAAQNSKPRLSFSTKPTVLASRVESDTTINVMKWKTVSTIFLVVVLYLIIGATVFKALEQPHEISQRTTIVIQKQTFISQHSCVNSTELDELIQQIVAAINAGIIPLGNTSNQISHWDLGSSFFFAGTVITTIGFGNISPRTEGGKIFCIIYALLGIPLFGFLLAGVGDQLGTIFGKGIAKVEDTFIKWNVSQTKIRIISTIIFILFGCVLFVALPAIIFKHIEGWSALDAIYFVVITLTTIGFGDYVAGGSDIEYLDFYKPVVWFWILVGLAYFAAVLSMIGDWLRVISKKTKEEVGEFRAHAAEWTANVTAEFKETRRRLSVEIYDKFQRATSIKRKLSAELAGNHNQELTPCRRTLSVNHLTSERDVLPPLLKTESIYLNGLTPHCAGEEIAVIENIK
Chain of Kv11.1 (hERG) (Q12809 whole entry): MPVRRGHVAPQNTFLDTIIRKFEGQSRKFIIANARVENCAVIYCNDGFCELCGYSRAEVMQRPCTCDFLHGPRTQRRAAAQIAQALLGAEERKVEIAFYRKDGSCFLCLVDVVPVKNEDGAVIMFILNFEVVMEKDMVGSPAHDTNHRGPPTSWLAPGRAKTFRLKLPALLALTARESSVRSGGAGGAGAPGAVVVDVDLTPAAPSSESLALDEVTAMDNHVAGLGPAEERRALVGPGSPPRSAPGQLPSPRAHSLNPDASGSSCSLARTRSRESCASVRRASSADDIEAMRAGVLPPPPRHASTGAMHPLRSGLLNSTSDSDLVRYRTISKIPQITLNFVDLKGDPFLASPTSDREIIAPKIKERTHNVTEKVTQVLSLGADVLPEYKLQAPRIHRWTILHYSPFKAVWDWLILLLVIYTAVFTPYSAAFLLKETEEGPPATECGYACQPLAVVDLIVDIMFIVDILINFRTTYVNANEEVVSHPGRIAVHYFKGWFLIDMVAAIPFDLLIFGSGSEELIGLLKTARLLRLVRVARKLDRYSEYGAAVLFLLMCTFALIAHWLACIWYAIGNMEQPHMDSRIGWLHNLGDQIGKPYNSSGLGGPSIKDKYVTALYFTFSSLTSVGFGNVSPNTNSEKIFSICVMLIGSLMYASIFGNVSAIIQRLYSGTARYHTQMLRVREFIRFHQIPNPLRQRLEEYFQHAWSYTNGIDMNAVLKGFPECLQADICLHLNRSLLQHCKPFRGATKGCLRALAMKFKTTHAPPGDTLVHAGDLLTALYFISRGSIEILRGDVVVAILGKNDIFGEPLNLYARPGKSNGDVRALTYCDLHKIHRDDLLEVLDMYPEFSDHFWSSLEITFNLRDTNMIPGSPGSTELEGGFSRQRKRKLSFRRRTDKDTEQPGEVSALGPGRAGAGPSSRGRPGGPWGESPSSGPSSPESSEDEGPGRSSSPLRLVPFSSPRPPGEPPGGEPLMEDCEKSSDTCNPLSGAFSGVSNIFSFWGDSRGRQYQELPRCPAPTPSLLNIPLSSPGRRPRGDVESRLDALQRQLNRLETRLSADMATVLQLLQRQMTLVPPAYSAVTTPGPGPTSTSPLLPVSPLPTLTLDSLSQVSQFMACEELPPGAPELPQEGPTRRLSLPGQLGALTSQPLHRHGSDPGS
Chain of KCa1.1 (BK) (Q12791 whole entry, species assumed): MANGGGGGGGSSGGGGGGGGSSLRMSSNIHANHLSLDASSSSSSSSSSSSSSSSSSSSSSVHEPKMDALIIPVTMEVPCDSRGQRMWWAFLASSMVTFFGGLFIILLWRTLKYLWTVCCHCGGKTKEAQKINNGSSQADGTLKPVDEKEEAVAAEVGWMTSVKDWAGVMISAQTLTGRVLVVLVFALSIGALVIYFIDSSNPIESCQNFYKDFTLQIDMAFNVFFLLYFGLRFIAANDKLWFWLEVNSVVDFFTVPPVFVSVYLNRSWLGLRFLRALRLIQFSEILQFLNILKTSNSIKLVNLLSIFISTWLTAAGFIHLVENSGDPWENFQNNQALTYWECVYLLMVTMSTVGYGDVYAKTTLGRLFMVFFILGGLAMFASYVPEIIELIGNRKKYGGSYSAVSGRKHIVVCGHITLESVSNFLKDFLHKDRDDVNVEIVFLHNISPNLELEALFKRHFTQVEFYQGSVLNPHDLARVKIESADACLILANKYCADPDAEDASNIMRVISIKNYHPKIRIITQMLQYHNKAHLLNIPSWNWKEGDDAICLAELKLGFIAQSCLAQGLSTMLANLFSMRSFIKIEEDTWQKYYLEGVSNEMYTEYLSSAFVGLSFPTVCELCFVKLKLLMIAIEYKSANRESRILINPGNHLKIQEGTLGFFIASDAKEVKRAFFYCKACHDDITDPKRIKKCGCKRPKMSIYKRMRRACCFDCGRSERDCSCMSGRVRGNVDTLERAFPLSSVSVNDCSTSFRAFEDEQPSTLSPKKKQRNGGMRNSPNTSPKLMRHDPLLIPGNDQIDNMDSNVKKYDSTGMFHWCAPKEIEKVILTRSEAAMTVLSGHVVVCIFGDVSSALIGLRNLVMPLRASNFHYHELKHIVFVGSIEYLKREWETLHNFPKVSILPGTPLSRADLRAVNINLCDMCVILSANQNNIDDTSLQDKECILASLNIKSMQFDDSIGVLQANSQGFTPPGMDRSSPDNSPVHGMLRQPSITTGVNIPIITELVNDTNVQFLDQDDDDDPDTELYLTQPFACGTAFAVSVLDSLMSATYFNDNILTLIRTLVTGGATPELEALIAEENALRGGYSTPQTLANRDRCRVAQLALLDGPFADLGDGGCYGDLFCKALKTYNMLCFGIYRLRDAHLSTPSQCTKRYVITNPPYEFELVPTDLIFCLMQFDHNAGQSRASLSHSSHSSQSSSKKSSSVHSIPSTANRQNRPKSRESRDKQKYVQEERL
T2 sequence (Q9HB14 whole entry): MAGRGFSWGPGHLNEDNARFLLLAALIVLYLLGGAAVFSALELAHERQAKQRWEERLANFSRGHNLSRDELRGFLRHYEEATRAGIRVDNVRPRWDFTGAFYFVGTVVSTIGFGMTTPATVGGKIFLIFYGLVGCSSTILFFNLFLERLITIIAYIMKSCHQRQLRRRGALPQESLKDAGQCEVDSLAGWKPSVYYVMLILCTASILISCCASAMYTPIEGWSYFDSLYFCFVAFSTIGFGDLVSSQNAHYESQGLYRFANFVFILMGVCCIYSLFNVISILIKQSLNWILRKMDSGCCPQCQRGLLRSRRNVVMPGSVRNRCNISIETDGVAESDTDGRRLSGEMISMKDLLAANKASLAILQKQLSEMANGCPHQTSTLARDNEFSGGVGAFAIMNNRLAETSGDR
Chain of TASK2 (K2P5.1) (O95279 whole entry, species assumed): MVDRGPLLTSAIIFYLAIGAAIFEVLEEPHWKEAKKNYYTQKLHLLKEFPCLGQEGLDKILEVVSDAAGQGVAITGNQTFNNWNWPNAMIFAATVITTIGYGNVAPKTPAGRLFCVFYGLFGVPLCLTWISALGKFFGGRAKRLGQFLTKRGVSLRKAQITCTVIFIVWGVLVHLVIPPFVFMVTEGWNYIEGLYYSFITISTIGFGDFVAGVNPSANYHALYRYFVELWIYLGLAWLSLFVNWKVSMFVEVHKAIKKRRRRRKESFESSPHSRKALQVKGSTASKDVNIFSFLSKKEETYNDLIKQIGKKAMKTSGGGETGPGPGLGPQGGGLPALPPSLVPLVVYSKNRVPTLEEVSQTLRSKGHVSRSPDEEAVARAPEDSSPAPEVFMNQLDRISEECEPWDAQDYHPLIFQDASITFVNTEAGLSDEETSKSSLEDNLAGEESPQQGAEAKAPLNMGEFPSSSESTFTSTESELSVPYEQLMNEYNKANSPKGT

`Nc1ccc(Oc2ccc(C(c3ccc(Oc4ccc(N)cc4)cc3)(C(F)(F)F)C(F)(F)F)cc2)cc1` [GI‐530159, 4,4′‐(hexafluoroisopropylidene)bis(p‐phenyleneoxy)dianiline] was tested, and the single-channel current amplitude [1] was “not altered”, the channel open probability ([1]; exemplar recording, 0.009 before application) was 0.025 and the “effect on Kv11.1 (hERG) current” value (Kv11.1 (hERG)) was −7.3 ± 5.1%. The “activator effect on TASK2 (K2P5.1)” value (TASK2 (K2P5.1)) was “no activator effects”, the “effect on KCa1.1 (BK) current” value (KCa1.1 (BK)) was −3.3 ± 6.7% and the “effect on THIK1 (K2P13.1) current” value (THIK1 (K2P13.1)) was 0 ± 3%. For the same molecule, the “share of cells with firing frequency reduced or abolished” value (small rat DRG neurons; 14 cells tested) was 57%, the “share of neurons with firing unaltered / unaffected” value (small rat DRG neurons; 14 cells tested) was 43% and the “cells with a reduction in firing frequency” value (small rat DRG neurons; [3]) was “two”. The “cells with complete abolition in firing frequency” value (small rat DRG neurons; [3]) was “six”, the “neurons with firing unaltered” value (small rat DRG neurons; [3]) was “six” and the “resting membrane potential after application, averaged per rat” value (small rat DRG neurons; n = 7 rats, from −54.0 ± 2.0 mV, P < 0.05) was −57.8 ± 1.4 mV. For the same molecule, the “resting membrane potential after application” value (small rat DRG neurons; n = 14 individual neurons, from −53.6 ± 1.5 mV, P < 0.05) was −57.1 ± 1.5 mV and the “block of Na current in DRG neurons” value [2] was “not observed”.
